Laboratory results as given in patent US10647721B2, “Bicyclic heteroaryl derivatives” (Hoffmann-La Roche Inc., priority 2016, dated 2020).

System: γ-secretase
Assay: Cellular γ-secretase assay (inhibition of Aβ42 secretion, AlphaLisa)
Assay type: cell-based
Conditions: human neuroglioma H4 cells overexpressing human APP695 Swedish double mutation, 24 hr compound incubation
Description: Cellular γ-Secretase Assay
Human neuroglioma H4 cells overexpressing human APP695 with the Swedish double mutation (K595N/M596L) were plated at 30,000 cells/well/100 μl in 96-well plates in IMDM media containing 10% FCS, 0.2 mg/l Hygromycin B and incubated at 37° C., 5% CO2.
3-4 hr post plating, compounds are a diluted in media and 50 μl is added as 1.5-fold concentrate to achieve the final concentration. Compound incubation is performed for 24 hr. Final doses typically range from 4 μm down to 0.0013 μm in half-log steps resulting in a eight point dose response curve.
Appropriate controls using vehicle only and reference compound were applied to this assay. The final concentration of Me2SO was 0.4%.
After incubation at 37° C., 5% CO2, the supernatant was subjected to quantification of secreted Aβ42 by the means of an AlphaLisa assay kit (Human Amyloid beta 1-42 Kit: Cat # AL203C, Perkin Elmer). 20 μl of the cell culture supernatant was transferred to an assay plate. Then 10 μl of a mixture of the AlphaLisa coupled capture antibody and the biotinylated detection antibody was added and incubated for 3 hours at room temperature while softly shaking the assay plate. After a further addition of 20 μl of the Donor beads the assay plate was incubated for 30 min at room temperature and constant shaking without exposure to direct light. The assay plate was then read on a Paradigm AlphaLisa Reader using the build-in program with excitation at 680 nm and emission at […].
The measured signals were then used to calculate IC50 values for inhibition of Aβ42 secretion by nonlinear regression fit analysis using XLfit 5.3 software (IDBS).

Row | EC50 | SMILES
1 | 14.4 nM | COc1cc(Nc2nc3n(n2)CCCN3c2ccc(F)c(F)c2F)ccc1-c1cnc(C)o1 [Example 15, N-[3-methoxy-4-(2-methyloxazol-5-yl)phenyl]-4-(2,3,4-trifluorophenyl)-6,7-dihydro-5H-[1,2,4]triazolo[1,5-a]pyrimidin-2-amine]
2 | 14.2 nM | COc1cc(Nc2nc3n(n2)CCCN3c2ccc(F)c(F)c2)ccc1-n1cnc(C)n1 [Example 2, 4-(3,4-difluorophenyl)-N-[3-methoxy-4-(3-methyl-1,2,4-triazol-1-yl)phenyl]-6,7-dihydro-5H-[1,2,4]triazolo[1,5-a]pyrimidin-2-amine]
3 | 16.6 nM | Cc1ncn(-c2ccc(Nc3nc4n(n3)CCCN4c3ccc(F)c(F)c3)cc2OC(F)F)n1 [Example 1, N-[3-(difluoromethoxy)-4-(3-methyl-1,2,4-triazol-1-yl)phenyl]-4-(3,4-difluorophenyl)-6,7-dihydro-5H-[1,2,4]triazolo[1,5-a]pyrimidin-2-amine]
4 | 13 nM | COc1cc(Nc2nc3n(n2)CCCN3c2ccc(F)c(F)c2F)ccc1-n1cnc(Cl)c1 [Example 17, N-[4-(4-chloroimidazol-1-yl)-3-methoxy-phenyl]-4-(2,3,4-trifluorophenyl)-6,7-dihydro-5H-[1,2,4]triazolo[1,5-a]pyrimidin-2-amine]
5 | 65.4 nM | COc1cc(Nc2nc3n(n2)CCN3c2ccc(C(F)(F)F)cc2)ccc1-n1cnc(Cl)c1 [Example 44, N-[4-(4-chloroimidazol-1-yl)-3-methoxy-phenyl]-4-[4-(trifluoromethyl)phenyl]-5,6-dihydroimidazo[1,2-b][1,2,4]triazol-2-amine]
6 | 14.3 nM | COc1cc(Nc2nc3n(n2)CCCN3c2ccc(F)c(F)c2)ccc1-c1cnc(C)o1 [Example 4, 4-(3,4-difluorophenyl)-N-[3-methoxy-4-(2-methyloxazol-5-yl)phenyl]-6,7-dihydro-5H-[1,2,4]triazolo[1,5-a]pyrimidin-2-amine]
7 | 34.5 nM | Cc1ncn(-c2ccc(Nc3nc4n(n3)CCCN4c3ccc(F)c(F)c3)cc2F)n1 [Example 11, 4-(3,4-difluorophenyl)-N-[3-fluoro-4-(3-methyl-1,2,4-triazol-1-yl)phenyl]-6,7-dihydro-5H-[1,2,4]triazolo[1,5-a]pyrimidin-2-amine]
8 | 30.4 nM | COc1cc(Nc2nc3n(n2)CCCN3c2cccc(F)c2)ccc1-n1cnc(C)n1 [Example 31, 4-(3-fluorophenyl)-N-[3-methoxy-4-(3-methyl-1,2,4-triazol-1-yl)phenyl]-6,7-dihydro-5H-[1,2,4]triazolo[1,5-a]pyrimidin-2-amine]
9 | 31.2 nM | Fc1ccc(N2CCCn3nc(Nc4ccc(-n5cnc(Cl)c5)cc4)nc32)cc1F [Example 23, N-[4-(4-chloroimidazol-1-yl)phenyl]-4-(3,4-difluorophenyl)-6,7-dihydro-5H-[1,2,4]triazolo[1,5-a]pyrimidin-2-amine]
10 | 7.4 nM | COc1cc(Nc2nc3n(n2)CCCN3c2cc(F)cc(F)c2)ccc1-n1cnc(Cl)c1 [Example 42, N-[4-(4-chloroimidazol-1-yl)-3-methoxy-phenyl]-4-(3,5-difluorophenyl)-6,7-dihydro-5H-[1,2,4]triazolo[1,5-a]pyrimidin-2-amine]
11 | 20.4 nM | Cc1ncc(-c2ccc(Nc3nc4n(n3)CCCN4c3ccc(F)c(F)c3)cc2F)o1 [Example 19, 4-(3,4-difluorophenyl)-N-[3-fluoro-4-(2-methyloxazol-5-yl)phenyl]-6,7-dihydro-5H-[1,2,4]triazolo[1,5-a]pyrimidin-2-amine]
12 | 28.9 nM | COc1cc(Nc2nc3n(n2)CCCN3c2ccc(F)c(F)c2)ccc1-c1cnn(C)c1 [Example 20, 4-(3,4-difluorophenyl)-N-[3-methoxy-4-(1-methylpyrazol-4-yl)phenyl]-6,7-dihydro-5H-[1,2,4]triazolo[1,5-a]pyrimidin-2-amine]
13 | 23.8 nM | N#Cc1cc(Nc2nc3n(n2)CCCN3c2ccc(F)c(F)c2)ccc1-n1cnc(C(F)F)c1 [Example 26, 2[4-(difluoromethyl)imidazol-1-yl]-5-[[4-(3,4-difluorophenyl)-6,7-dihydro-5H-[1,2,4]triazolo[1,5-a]pyrimidin-2-yl]amino]benzonitrile]
14 | 10 nM | COc1cc(Nc2nc3n(n2)CCCN3c2ccc(F)cc2)ccc1-n1cnc(Cl)c1 [Example 34, N-[4-(4-chloroimidazol-1-yl)-3-methoxy-phenyl]-4-(4-fluorophenyl)-6,7-dihydro-5H-[1,2,4]triazolo[1,5-a]pyrimidin-2-amine]
15 | 25.1 nM | Cc1ncn(-c2ccc(Nc3nc4n(n3)CCCN4c3ccc(F)c(F)c3)cc2C#N)n1 [Example 30, 5-[[4-(3,4-difluorophenyl)-6,7-dihydro-5H-[1,2,4]triazolo[1,5-a]pyrimidin-2-yl]amino]-2-(3-methyl-1,2,4-triazol-1-yl)benzonitrile]
16 | 17.5 nM | Cc1ncc(-c2ncc(Nc3nc4n(n3)CCCN4c3ccc(F)cc3)cc2F)o1 [Example 39, N-[5-fluoro-6-(2-methyloxazol-5-yl)-3-pyridyl]-4-(4-fluorophenyl)-6,7-dihydro-5H-[1,2,4]triazolo[1,5-a]pyrimidin-2-amine]
17 | 19.8 nM | Cc1ncc(-c2ccc(Nc3nc4n(n3)CCCN4c3ccc(F)c(F)c3)cc2)o1 [Example 22, 4-(3,4-difluorophenyl)-N-[4-(2-methyloxazol-5-yl)phenyl]-6,7-dihydro-5H-[1,2,4]triazolo[1,5-a]pyrimidin-2-amine]
18 | 24.8 nM | Cc1ncnn1-c1ccc(Nc2nc3n(n2)CCCN3c2ccc(F)c(F)c2)cc1F [Example 13, 4-(3,4-difluorophenyl)-N-[3-fluoro-4-(5-methyl-1,2,4-triazol-1-yl)phenyl]-6,7-dihydro-5H-[1,2,4]triazolo[1,5-a]pyrimidin-2-amine]
19 | 39.9 nM | Fc1ccc(N2CCCn3nc(Nc4ccc(-n5cnc(Cl)c5)c(F)c4)nc32)cc1 [Example 36, N-[4-(4-chloroimidazol-1-yl)-3-fluoro-phenyl]-4-(4-fluorophenyl)-6,7-dihydro-5H-[1,2,4]triazolo[1,5-a]pyrimidin-2-amine]
